Tests used:
[1] = test system: normal cells (HaCat, NCTC and human primary fibroblasts); experiment: Cell viability (MTT) of normal cells; type: cell-based; settings: increasing concentrations, 24 hours, FIG. 1B
D3H2LN cells = experiment: Transwell Boyden chamber migration assay, D3H2LN cells; type: cell-based; settings: 2 μM, toward 10% FBS, 12 h, FIG. 7A
Description: FIG. 7: Antp-AAC-11-LZ (363-399) peptide inhibits cell migration and invasion. (A) D3H2LN cells were added to the upper well of modified Boyden chamber (transwell) plates with a vehicle or with either 2 μM of the Antp-AAC-11-LZ (363-399) peptide or the Antp-only peptide and subjected to a transwell migration assay as described under Materials and methods. The cells were allowed to migrate toward 10% FBS for 12 […]h. Triplicate wells were used for each of three independent experiments. The results are expressed relative to the migration of the untreated cells (=100%). Column: Mean of three experiments. Bar: s.e. P-value was determined by Student's t-test (*P<0.01). (B) D3H2LN cells were seeded in a Matrigel-coated Boyden chamber with a vehicle or with either 2 μM of the Antp-AAC-11-LZ (363-399) peptide or the Antp-only peptide and subjected to a transwell migration assay as described under Materials and methods. The cells were allowed to migrate toward 10% FBS for 24 […]h. Triplicate wells were used for each of three independent experiments. The results are expressed relative to the migration of the untreated cells (=100%). Column: Mean of three experiments. Bar: s.e. P-value was determined by Student's t-test (*P<0.01) […]

[2] = test system: human triple-negative breast cancer xenograft PDX01; experiment: Triple-negative breast cancer patient-derived xenograft PDX01 in nude mice; type: in vivo; settings: 2.4 mg/kg i.p., 7 daily injections, FIG. 8B
Description: (§1) Breast cancer fragments were obtained from patients at the time of surgery, with informed written patient consent. After imaging-guided human tumor biopsies had been performed, fragments of 30 to 60 mm^3 were subcutaneously grafted in 6-week-old NMRI-nude mice (Centre-Elevage-Janvier, France), under xylasin (10 mg/kg)/ketamin (100 mg/kg) anesthesia. Mice were maintained in specific pathogen-free animal housing (Institut Universitaire d'Hematologie) and received estrogen (17 mg/mL) diluted in drinking water. Xenografts were characterized and subsequently subcutaneously transplanted from mouse to mouse. […] Two human triple-negative breast cancer (HBC) xenografts models were used in our experiments (PDX01 and PDX02). […] Following transplantation (n=6 per model) tumor growth was assessed by measuring tumor size in two dimension using a Vernier caliper. Tumor volume was calculated using the formula [3.14×long axis×short axis×short axis]/6 (Kjonniksen et al., 1989). […] Mice were weighted and the tumor size was measured by a caliper and recorded daily. Fourteen days after beginning of the treatment mice were sacrificed. The tumors, kidney, lungs, heart, liver, pancreas and spleen were taken and fixed. Paraffin-embedded sections were prepared and stained with hematoxylin and eosin for histological analysis.

[3] = test system: human triple-negative breast cancer xenograft PDX02; experiment: Triple-negative breast cancer patient-derived xenograft PDX02 in nude mice; type: in vivo; settings: 2.4 mg/kg i.p., 7 daily injections, FIG. 8B
Description: as §1

## Ac-RQIKIWFKKQNRRMKWKKAKLNAEKLKDFKIRLQYFARGLQVYIRQLRLALQGKT-NH2 [Antp-AAC-11-LZ (363-399)]
[1]
  toxicity in normal cells: much reduced toxicity
D3H2LN cells
  cell migration: substantially decreased
[2]
  tumor size versus vehicle: significantly smaller tumors
[3]
  tumor size versus vehicle: significantly smaller tumors
